Measurements: publication PMC12073298, “Design, Synthesis, and Biological Evaluation of Naphthoquinone Salts as Anticancer Agents” (Molecules, 2025)
Read-outs that look alike come from different tables or passages of the source.

Legend:
[1] = system: human endometrial cancer cells (HEC1A); details: previous study, cited from earlier work
[2] = system: human endometrial cancer cells (HEC1A); assay: MTT cell viability assay, HEC1A cells; assay type: cell-based; details: for IC50: 48 h, HEC1A cells, MTT, n = 3 biological replicates, read-out: Mean IC50 (μM) HEC1A ± SD; for Selectivity Ratio: IC50 value from MAD11 cells divided by the IC50 value from HEC1A cells
Protocol: (§1) The cytotoxic effects of the synthesized salt compounds were assessed against human endometrial cancer cells (HEC1A) and normal endometrial stromal cells (MAD11) using the MTT cell viability assay. BH10 was used as the reference compound.
(§2) Reagents and equipment: phosphate-buffered saline (PBS) (Sigma Aldrich, St. Louis, MO, USA), 10× Trypsin-EDTA solution (Sigma Aldrich, 59418C), Dulbecco’s Modified Eagle’s Medium (Sigma Aldrich), foetal bovine serum (FBS), and 100× penicillin-streptomycin solution (Sigma Aldrich P4333). The MTT reagent was prepared by dissolving 5 mg/mL MTT powder in sterile PBS, followed by filtration, whereas the MTT solvent contained 4 mM HCl and 0.1% Nonidet P-40 in isopropanol. Dimethyl sulfoxide (DMSO) was also sourced from Sigma Aldrich. Absorbance measurements were acquired using Kaleido 1.0 software coupled with an EnSight™ HH3400 Multimode Plate Reader (PerkinElmer, Waltham, MA, USA). HEC-1-A endometrial cancer cells were obtained from ATCC, while MAD11 endometrial stromal cells were provided by Dr. Hui Li (University of Virginia). MAD11 cells, derived from non-cancerous donors, were immortalized via human telomerase reverse transcriptase (hTERT).
(§3) Method: The methods were adapted from Byrne et al. (2014). Cells were cultured in DMEM supplemented with 10% FBS and 1% Pen-Strep solution (100 U/mL penicillin and 0.1 mg/mL streptomycin). Upon reaching ~70% confluence, the cells were washed with sterile PBS and detached using a 1× trypsin-EDTA solution. The cells were then resuspended in culture media, counted, and seeded into sterile 96-well tissue culture plates (2500 cells per well for MAD11; 5000 cells per well for HEC-1-A). The cells were incubated at 37 °C with 5% CO2 for 24 h prior to drug treatment. Drugs were serially diluted in culture medium to final concentrations of 100, 50, 25, 12.5, 6.3, 3.1, 1.6, and 0.8 µM per well and applied in triplicate. For compounds 7a–f and 15, as their IC₅₀ values were below 0.8 µM, an additional set of three biological replicates was conducted using a lower concentration range (500, 250, 125, 63, 31, 16, 8, and 4 nM). To minimize variations due to DMSO (vehicle), both drug dilutions and control wells received the same final concentration of DMSO. After 48 h of incubation at 37 °C with 5% CO2, cell viability was assessed by adding 20 µL/well of MTT reagent for 3 h. Supernatants were aspirated, and formazan crystals were dissolved in MTT solvent before absorbance was measured at 590/620 nm using an EnSight™ HH3400 Multimode Plate Reader. Cell viability was expressed as a percentage of the vehicle (DMSO-treated) control, with results reported as mean ± SEM from three independent experiments. IC50 values were determined using GraphPad Prism 9.

[3] = system: normal endometrial stromal cells (MAD11); assay: MTT cell viability assay, MAD11 cells; assay type: cell-based, human; details: MAD11 non-cancerous cells, n = 3 biological replicates, read-out: Mean IC50 (μM) MAD11 ± SD
Protocol: as §1, §2, §3

[4] = cell line not printed here, read-out: IC50 (anticancer potency of starting materials)
[5] = non-salt parent compounds, read-out: IC50 of parent naphthoimidazole analogues

Row | Compound | IC50 ([2]; Homo sapiens, HEC-1-A) | Selectivity Ratio [2] | IC50 ([3]; Homo sapiens, MAD11, 48 h) | other results
1 | O=C1C=C(NCCN2CCOCC2)C(=O)c2ccccc21 [Compound 1a] |  |  |  | IC50 [1, 4]: > 40 µM
2 | CC1=C(NCCN2CCOCC2)C(=O)c2ccccc2C1=O [Compound 1h] |  |  |  | IC50 [1, 4]: > 40 µM
3 | C[N+]1(CCNC2=CC(=O)c3ccccc3C2=O)CCOCC1.[I-] [Compound 2a, 4-(2-((1,4-Dioxo-1,4-dihydronaphthalen-2-yl)amino)ethyl)-4-methylmorpholin-4-ium iodide] | 21.1 ± 2.99 µM | >4.73 | > 100 µM | 
4 | C[N+]1(CCCNC2=CC(=O)c3ccccc3C2=O)CCCCC1 [Compound 2b, 1-(3-((1,4-Dioxo-1,4-dihydronaphthalen-2-yl)amino)propyl)-1-methylpiperidin-1-ium iodide] | > 100 µM |  | > 100 µM | 
5 | C[N+](C)(C)CCNC1=C(Cl)C(=O)c2ccccc2C1=O [Compound 2c, 2-((3-Chloro-1,4-dioxo-1,4-dihydronaphthalen-2-yl)amino)-N,N,N-trimethylethan-1-aminium iodide] | 97.2 ± 8.2 µM |  | > 100 µM | 
6 | C[N+]1(CCNC2=C(Cl)C(=O)c3ccccc3C2=O)CCCCC1.[I-] [Compound 2d, 1-(2-((3-Chloro-1,4-dioxo-1,4-dihydronaphthalen-2-yl)amino)ethyl)-1-methylpiperidin-1-ium iodide] | 58.8 ± 3.01 µM | >1.70 | > 100 µM | 
7 | C[N+](C)(C)CCCNC1=C(Cl)C(=O)c2ccccc2C1=O [Compound 2e, 3-((3-Chloro-1,4-dioxo-1,4-dihydronaphthalen-2-yl)amino)-N,N,N-trimethylpropan-1-aminium iodide] | > 100 µM |  | > 100 µM | 
8 | C[N+]1(CCCNC2=C(Cl)C(=O)c3ccccc3C2=O)CCOCC1 [Compound 2f, 4-(3-((3-Chloro-1,4-dioxo-1,4-dihydronaphthalen-2-yl)amino)propyl)-4-methylmorpholin-4-ium iodide] | > 100 µM |  | > 100 µM | 
9 | C[N+]1(CCNC2=C(Br)C(=O)c3ccccc3C2=O)CCOCC1.[I-] [Compound 2g, 4-(2-((3-Bromo-1,4-dioxo-1,4-dihydronaphthalen-2-yl)amino)ethyl)-4-methylmorpholin-4-ium iodide] | 23.8 ± 4.17 µM | >4.20 | > 100 µM | 
10 | CC1=C(NCC[N+]2(C)CCOCC2)C(=O)c2ccccc2C1=O [Compound 2h, 4-Methyl-4-(2-((3-methyl-1,4-dioxo-1,4-dihydronaphthalen-2-yl)amino)ethyl)morpholin-4-ium iodide] | 95.5 ± 14.7 µM |  | > 100 µM | 
11 | Cc1n(C)c2cc3ccccc3cc2[n+]1C.[I-] [Compound 9, 1,2,3-Trimethyl-1H-naphtho [2,3-d]imidazol-3-ium iodide] | 24.9 µM | 2.70 | 64.6 ± 14 µM | IC50 [2]: 23.9 ± 2.97 µM
12 | Cc1n(C)c2ccccc2[n+]1C [Compound 11, 1,2,3-Trimethyl-1H-benzo[d]imidazol-3-ium iodide] | > 100 µM |  | > 100 µM | 
13 | Cn1c[n+](C)c2ccccc21 [Compound 13, 1,3-Dimethyl-1H-benzo[d]imidazol-3-ium iodide] | > 100 µM |  | > 100 µM | 
14 | Cc1n(C)c2c([n+]1C)C(=O)c1ccccc1C2=O.[I-] [Compound 15, 1,2,3-Trimethyl-4,9-dioxo-4,9-dihydro-1H-naphtho [2,3-d]imidazol-3-ium iodide] |  | 11.43 |  | IC50 [2]: 0.0135 ± 0.0009 µM; IC50 ([3]; 48 h): 0.154 ± 0.0109 µM
15 | O=C1c2ccccc2C(=O)c2c1nc(C(F)(F)F)n2Cc1cn(CCN2CCOCC2)nn1 [Compound 16a] |  |  |  | selectivity of parent naphthoimidazole analogues ([1]; non-salt parent compounds): 1.73; IC50 [1, 5]: 18.1 µM
16 | O=C1c2ccccc2C(=O)c2c1nc(C(F)(F)F)n2Cc1cn(CCN2CCCCC2)nn1 [Compound 16b] |  |  |  | selectivity of parent naphthoimidazole analogues ([1]; non-salt parent compounds): 2.01
17 | O=C1c2ccccc2C(=O)c2c1nc(C(F)(F)F)n2Cc1cn(CCCN2CCCCC2)nn1 [Compound 16c] |  |  |  | selectivity of parent naphthoimidazole analogues ([1]; non-salt parent compounds): 2.77; IC50 [1, 5]: 2.6 µM
18 | Cc1nc2c(n1CCCN1CCCCC1)C(=O)c1ccccc1C2=O [Compound 18] |  |  |  | selectivity of parent naphthoimidazole analogues ([1]; non-salt parent compounds): 3.59; IC50 [1, 5]: 6.4 µM
19 | Cc1nc2c(n1CCC[N+]1(C)CCCCC1)C(=O)c1ccccc1C2=O.[I-] [Compound 19, 1-Methyl-1-(3-(2-methyl-4,9-dioxo-4,9-dihydro-1H-naphtho [2,3-d]imidazol-1-yl)propyl) piperidin-1-ium iodide] | 6.35 ± 1.41 µM | 6.42 | 40.8 ± 14.1 µM | 

Further lines, with some results ahead:

Row | IC50 ([2]; Homo sapiens, HEC-1-A) | Compound | Selectivity Ratio [2] | IC50 ([3]; Homo sapiens, MAD11, 48 h) | other results
20 | 0.00953 ± 0.0007 µM | Cc1n(C)c2c([n+]1C)C(=O)c1ccccc1C2=O.[Br-] [Compound 7a, 1,2,3-Trimethyl-4,9-dioxo-4,9-dihydro-1H-naphtho [2,3-d]imidazol-3-ium bromide] | 6.89 |  | IC50 ([3]; 48 h): 0.0657 ± 0.00641 µM
21 | 0.023 ± 0.0033 µM | Cc1n(C)c2c([n+]1C)C(=O)c1c(cccc1[N+](=O)[O-])C2=O.[Br-] [Compound 7b, 1,2,3-Trimethyl-5-nitro-4,9-dioxo-4,9-dihydro-1H-naphtho [2,3-d]imidazol-3-ium bromide] | 41.43 | 0.952 ± 0.215 µM | 
22 | 0.0288 ± 0.0014 µM | Cc1n(C)c2c([n+]1C)C(=O)c1cc([N+](=O)[O-])ccc1C2=O.[Br-] [Compound 7c, 1,2,3-Trimethyl-6-nitro-4,9-dioxo-4,9-dihydro-1H-naphtho [2,3-d]imidazol-3-ium bromide] | 2.37 | 0.0685 ± 0.0061 µM | 
23 | 0.0256 ± 0.0021 µM | COc1ccc2c(c1)C(=O)c1c(n(C)c(C)[n+]1C)C2=O [Compound 7d, 6-Methoxy-1,2,3-trimethyl-4,9-dioxo-4,9-dihydro-1H-naphtho [2,3-d]imidazol-3-ium bromide] |  | 0.194 ± 0.0191 µM | 
24 | 0.0149 ± 0.0012 µM | Cc1ccc2c(c1)C(=O)c1c([n+](C)c(C)n1C)C2=O [Compound 7e, 1,2,3,7-Tetramethyl-4,9-dioxo-4,9-dihydro-1H-naphtho [2,3-d]imidazol-3-ium bromide] |  | 0.101 ± 0.0124 µM | 
25 | 0.472 ± 0.0378 µM | Cc1n(C)c2c([n+]1C)C(=O)c1ccncc1C2=O.[Br-] [Compound 7f, 1,2,3-Trimethyl-4,9-dioxo-4,9-dihydro-3H-imidazo [4,5-g]isoquinolin-1-ium bromide] | 10.16 | 4.8 ± 0.327 µM | loss in potency relative to 7a ([2]; Figure 3, SAR summary): ~ 50 fold
26 | 11.2 ± 2.63 µM | C[N+]1(CCn2cc(Cn3c(C(F)(F)F)nc4c3C(=O)c3ccccc3C4=O)nn2)CCOCC1.[I-] [Compound 17a, 4-(2-(4-((4,9-Dioxo-2-(trifluoromethyl)-4,9-dihydro-1H-naphtho [2,3-d]imidazol-1-yl)methyl)-1H-1,2,3-triazol-1-yl)ethyl)-4-methylmorpholin-4-ium iodide] | 9.93 | 111 ± 45 µM | 
27 | 6.79 ± 1 µM | C[N+]1(CCn2cc(Cn3c(C(F)(F)F)nc4c3C(=O)c3ccccc3C4=O)nn2)CCCCC1.[I-] [Compound 17b, 1-(2-(4-((4,9-Dioxo-2-(trifluoromethyl)-4,9-dihydro-1H-naphtho [2,3-d]imidazol-1-yl)methyl)-1H-1,2,3-triazol-1-yl)ethyl)-1-methylpiperidin-1-ium iodide] | >14.73 | > 100 µM | 
28 | 5.62 ± 1.43 µM | C[N+]1(CCCn2cc(Cn3c(C(F)(F)F)nc4c3C(=O)c3ccccc3C4=O)nn2)CCCCC1.[I-] [Compound 17c, 1-(3-(4-((4,9-Dioxo-2-(trifluoromethyl)-4,9-dihydro-1H-naphtho [2,3-d]imidazol-1-yl)methyl)-1H-1,2,3-triazol-1-yl)propyl)-1-methylpiperidin-1-ium iodide] | >17.79 | > 100 µM | 
